Experimental findings from ChEMBL document CHEMBL1133131, “Discovery of an orally bioavailable alkyl oxadiazole beta3 adrenergic receptor agonist” (Bioorg Med Chem Lett, 2000) are described below.

As a reminder, the IC50 is the midpoint of a concentration-inhibition curve. For orientation: EC50 means the concentration that produces a half-maximal response. Usually half-life stands for how long it takes for the measured level to halve. By ED50 is commonly meant the dose at which the effect has come halfway, by size or by number of responders. Broadly, the bioavailability is the share of a dose that reaches the circulation, judged against a reference dose that is usually intravenous.

Each structure is given as a SMILES string. Activity calls are given as the source filed them. The rule behind the calls is not given here. Bounds are passed on as bounds.

For data set [1], the target named is Beta-1 adrenergic receptor (Homo sapiens, UniProt P08588). Briefly: Binding affinity towards cloned human Beta-1 adrenergic receptor prepared from CHO cells in the presence of [125I]iodocyanopindolol. It counts as cell-based.
Chain of Beta-1 adrenergic receptor (P08588 whole entry): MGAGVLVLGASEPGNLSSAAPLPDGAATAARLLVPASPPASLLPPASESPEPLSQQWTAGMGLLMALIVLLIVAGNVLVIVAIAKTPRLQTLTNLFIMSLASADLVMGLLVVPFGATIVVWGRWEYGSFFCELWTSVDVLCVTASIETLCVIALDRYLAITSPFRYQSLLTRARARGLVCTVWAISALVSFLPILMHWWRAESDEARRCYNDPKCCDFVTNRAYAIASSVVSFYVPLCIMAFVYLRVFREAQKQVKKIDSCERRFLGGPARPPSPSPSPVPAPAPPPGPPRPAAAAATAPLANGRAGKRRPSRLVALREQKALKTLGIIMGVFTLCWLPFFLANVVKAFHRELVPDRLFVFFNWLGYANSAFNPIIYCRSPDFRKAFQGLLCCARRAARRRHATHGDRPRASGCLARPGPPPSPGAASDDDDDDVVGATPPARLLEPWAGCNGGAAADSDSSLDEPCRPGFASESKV
In data set [2] the target is T1, Beta-3 adrenergic receptor (Homo sapiens, UniProt P13945). Briefly: Adenylyl cyclase activation as percent maximal isoproterenol stimulation of CHO cells expressing beta-3 receptor. It counts as functional, cell-based.
Target sequence in this assay (P13945 whole entry, looked up): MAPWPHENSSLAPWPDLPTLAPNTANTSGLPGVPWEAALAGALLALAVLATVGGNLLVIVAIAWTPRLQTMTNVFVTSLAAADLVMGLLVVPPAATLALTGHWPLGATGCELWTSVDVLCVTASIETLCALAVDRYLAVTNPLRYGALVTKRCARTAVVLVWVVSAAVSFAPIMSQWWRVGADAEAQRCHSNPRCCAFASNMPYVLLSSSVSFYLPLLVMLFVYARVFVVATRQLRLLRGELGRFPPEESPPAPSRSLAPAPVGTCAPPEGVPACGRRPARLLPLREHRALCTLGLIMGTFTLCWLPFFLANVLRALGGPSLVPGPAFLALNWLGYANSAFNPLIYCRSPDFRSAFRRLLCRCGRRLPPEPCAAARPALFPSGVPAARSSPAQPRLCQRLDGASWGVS
The target in data set [3] is T1, Beta-3 adrenergic receptor. Kind of data set: Agonist activity as increasedn cAMP production in Chinese hamster ovary (CHO)cells expressing human beta-3 adrenergic receptor. It counts as functional.
Target sequence in this assay (P13945 whole entry): as the sequence (P13945 whole entry, looked up) above
Data set [4] has as its target Beta-2 adrenergic receptor (Homo sapiens, UniProt P07550). Kind of data set: Binding affinity towards Beta-2 adrenergic receptor prepared from CHO cells expressing the cloned human receptor in the presence of [125I]iodocyanopindolol. It counts as cell-based.
A short description of data set [5]: Half life in rats. It counts as ADME, organism-based. To be noted: rat, in vivo.
For data set [6], the system named is Monkey. Briefly: The compound was evaluated for dose- dependent elevation of plasma glycerol in anesthetized rhesus. Type of data set: functional. The following applies: Cercopithecidae, in Macaca mulatta.
Data set [7] in a line: Oral bioavailability of perorally administered compound (10 mg/kg) was tested in dogs. It counts as ADME, organism-based, Canis lupus familiaris. To be noted: dog, in vivo.
The nature of data set [8]: Half life in dog. Type of data set: ADME, organism-based, Canis lupus familiaris. The following applies: in vivo.
Data set [9] is described as follows: Oral bioavailability of intravenously administered compound (3 mg/kg) was tested in rats. It counts as ADME, organism-based. To be noted: rat, in vivo, intravenous.
For data set [10], the system named is Monkey. Kind of data set: The compound was tested for the percent increase in heart rate at the dose level of 10 mg/kg; No significant alteration. Type of data set: functional, organism-based. Details: dose 10 mg/kg. The following applies: Cercopithecidae.

Chain of Beta-2 adrenergic receptor (P07550 whole entry): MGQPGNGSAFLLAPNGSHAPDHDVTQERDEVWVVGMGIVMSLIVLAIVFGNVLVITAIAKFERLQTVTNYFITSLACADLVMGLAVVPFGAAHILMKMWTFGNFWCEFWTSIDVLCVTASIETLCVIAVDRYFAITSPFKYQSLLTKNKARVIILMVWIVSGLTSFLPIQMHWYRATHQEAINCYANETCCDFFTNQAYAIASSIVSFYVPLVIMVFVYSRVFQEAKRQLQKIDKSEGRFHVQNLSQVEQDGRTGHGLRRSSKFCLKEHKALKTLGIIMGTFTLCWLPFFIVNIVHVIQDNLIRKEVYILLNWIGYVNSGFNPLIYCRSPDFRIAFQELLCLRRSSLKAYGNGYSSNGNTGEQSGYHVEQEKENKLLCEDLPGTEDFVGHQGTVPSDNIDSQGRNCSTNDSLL

With `CC(C)CCCc1nc(-c2ccc(S(=O)(=O)Nc3ccc(CCNC[C@H](O)c4cccnc4)cc3)cc2)no1`, the IC50 in [1] stood at 26000 nM; in data set [4], 1000 nM. Besides, the Activation in data set [2] was found to be 58%. A half-maximal effect in data set [3] (EC50) was put at 29 nM.
On the same counts, the results for `O=C(CCc1nc(-c2ccc(S(=O)(=O)Nc3ccc(CCNC[C@H](O)c4cccnc4)cc3)cc2)no1)N1CCCC1` are 30000 nM, 51000 nM, 49% and 120 nM.
Take `CC(=O)CCCc1nc(-c2ccc(S(=O)(=O)Nc3ccc(CCNC[C@H](O)c4cccnc4)cc3)cc2)no1`: the IC50 in data set [1] is 70000 nM; in data set [4] it was 57000 nM. The compound further showed an Activation in [2] of 69%. In [3], this compound showed an EC50 of 130 nM.
The matching figures for `Cc1nc(-c2ccc(S(=O)(=O)Nc3ccc(CCNC[C@H](O)c4cccnc4)cc3)cc2)no1`: 10000 nM, 10000 nM, 15% and above 100 nM.
With `O=S(=O)(Nc1ccc(CCNC[C@H](O)c2cccnc2)cc1)c1ccc(-c2noc(CCCC3CCCC3)n2)cc1`, the results for the IC50 in data set [1] and in data set [4] were 5500 nM and 962 nM, respectively. In addition, the Activation in [2] was 83%. In data set [3], this compound came in with an EC50 of 15 nM.
The matching figures for `CCC(=O)CCc1nc(-c2ccc(S(=O)(=O)Nc3ccc(CCNC[C@H](O)c4cccnc4)cc3)cc2)no1`: 25000 nM, 12000 nM, 75% and 66 nM.
The matching figures for `CCCCc1nc(-c2ccc(S(=O)(=O)Nc3ccc(CCNC[C@H](O)c4cccnc4)cc3)cc2)no1`: 55000 nM, 6500 nM, 86% and 32 nM.
Take `CCC(O)CCc1nc(-c2ccc(S(=O)(=O)Nc3ccc(CCNC[C@H](O)c4cccnc4)cc3)cc2)no1` (stereo not given in full): the results for the IC50 in data set [1] and in data set [4] were 56000 nM and 24000 nM, respectively. This compound also registered an Activation in [2] of 53%. The compound further returned an EC50 in data set [3] of 75 nM.
`O=S(=O)(Nc1ccc(CCNC[C@H](O)c2cccnc2)cc1)c1ccc(-c2noc(CCOC3CCCC3)n2)cc1`: the IC50 in [1] was found to be 8330 nM; in data set [4], 2670 nM. Also, the Activation in data set [2] turned out to be 70%. Further, a half-maximal response in [3] (EC50) required 13 nM.
On the same counts, the results for `CCCCCCCc1nc(-c2ccc(S(=O)(=O)Nc3ccc(CCNC[C@H](O)c4cccnc4)cc3)cc2)no1` are 2000 nM, 1410 nM, 86% and 39 nM.
In the case of `O=S(=O)(Nc1ccc(CCNC[C@H](O)c2cccnc2)cc1)c1ccc(-c2noc(CCCC3CCCCC3)n2)cc1`, the half-maximal inhibitory concentration (IC50) in data set [1] worked out at 1970 nM; in [4], 660 nM. Moreover, in [2], the Activation is 62%. In data set [3], a half-maximal response (EC50) required 19 nM.
On the same counts, the results for `CCCc1nc(-c2ccc(S(=O)(=O)Nc3ccc(CCNC[C@H](O)c4cccnc4)cc3)cc2)no1` are 8500 nM, 8500 nM, 70% and 87 nM.
The matching figures for `CCCCCCCCc1nc(-c2ccc(S(=O)(=O)Nc3ccc(CCNC[C@H](O)c4cccnc4)cc3)cc2)no1`: 9000 nM, 2500 nM, 90% and 54 nM.
On the same counts, the results for `CC(O)CCCc1nc(-c2ccc(S(=O)(=O)Nc3ccc(CCNC[C@H](O)c4cccnc4)cc3)cc2)no1` (stereo not given in full) are 10000 nM, 44000 nM, 20% and above 100 nM.
Regarding `CCCCCCc1nc(-c2ccc(S(=O)(=O)Nc3ccc(CCNC[C@H](O)c4cccnc4)cc3)cc2)no1`, the concentration for half-maximal inhibition (IC50) in data set [1] is 2000 nM; in data set [4], 1000 nM. This compound came in with an Activation in data set [2] of 79%. For the same compound, the half-maximal effective concentration (EC50) in data set [3] was found to be 35 nM.
As to `CCCCCc1nc(-c2ccc(S(=O)(=O)Nc3ccc(CCNC[C@H](O)c4cccnc4)cc3)cc2)no1`, the half-life in data set [5] was 2.4 h; in data set [8] it was 3.6 h. The values for the IC50 in [1] and in data set [4] were 5500 nM and 3000 nM, respectively. Further, the 50% effect level in the data set with Monkey [6] (ED50) was put at a dose of 0.22 mg/kg. Besides, the bioavailability in [7] worked out at 62%; in data set [9], 36%. The compound further gave an Activation in data set [2] of 53%. The EC50 in data set [3] turned out to be 23 nM. Moreover, in the data set with Monkey [10], the result was inactive.
